Source: BigSolDB 2.1

NC(=O)[C@@H]1CCCN1
solubility (mole fraction)
Conditions | in DMF | in THF | in acetone | in acetonitrile | in cyclohexane | in ethyl acetate | in isopropanol | in n-heptane | in n-hexane | in n-propanol
278.15 K | 0.0422 | 0.0621 | 0.0644 | 0.0557 | 6e-05 | 0.0134 | 0.0532 | 0.00025 | 6e-05 | 0.0467
283.15 K | 0.0578 | 0.075 | 0.078 | 0.0634 | 9e-05 | 0.0179 | 0.0618 | 0.00036 | 9e-05 | 0.0597
288.15 K | 0.0758 | 0.0885 | 0.0956 | 0.073 | 0.00014 | 0.0242 | 0.0795 | 0.00049 | 0.00015 | 0.0753
293.15 K | 0.0976 | 0.107 | 0.113 | 0.0838 | 0.00022 | 0.0315 | 0.0995 | 0.00068 | 0.00023 | 0.0933
298.15 K | 0.123 | 0.129 | 0.133 | 0.0951 | 0.00032 | 0.042 | 0.125 | 0.00096 | 0.00032 | 0.111
303.15 K | 0.156 | 0.156 | 0.154 | 0.106 | 0.00051 | 0.0549 | 0.153 | 0.00131 | 0.00051 | 0.13
308.15 K | 0.194 | 0.189 | 0.177 | 0.116 | 0.00079 | 0.0711 | 0.19 | 0.0018 | 0.00077 | 0.16
313.15 K | 0.238 | 0.228 | 0.2 | 0.127 | 0.00124 | 0.0927 | 0.23 | 0.00239 | 0.00112 | 0.204
318.15 K | 0.288 | 0.287 | 0.225 | 0.138 | 0.0017 | 0.121 | 0.28 | 0.00304 | 0.00159 | 0.259
323.15 K | 0.347 | 0.362 | 0.252 | 0.148 | 0.00231 | 0.154 | 0.355 | 0.00401 | 0.00212 | 0.328
